Reference: patent US12139492B2 (Endotarget Inc., priority 2021, dated 2024)
Like-named read-outs stand apart in the source and are kept apart here.

What was measured:
[1] = test system: Mino cells; assay: Antiproliferative effect, MTS cell viability assay, Mino cells; assay type: cell-based; conditions: Homo sapiens, MINO, Mino mantle cell lymphoma cells; read-out: IC50 (anti-proliferation) Mino cells
Procedure: (§1) Antiproliferative effect of the exemplary compounds was assessed in B-cell malignancy models.
(§2) To assess the effect of the exemplary compounds on cell viability in B-cell malignancy models by degradation of BTK protein, Mino and JeKo-1 cells were treated with varying concentrations of Ibrutinib (0, 0.001, 0.01, 0.1, 1, 10 μM). Under these conditions, cell viability was determined by an MTS assay. Cytotoxicity was assayed by the determination of reduced tetrazolium (formazan) created by metabolically active cells as detected at 490 nm absorbance using a microplate reader (BMG Labtech, Cary, NC, USA).
(§3) The exemplary compounds attenuated the viability of Mino and JeKo-1 cells in a concentration-dependent manner at 72 h post treatment. Results are shown in Table 1 for each exemplary compound.

[2] = test system: JeKo-1 cells; assay: Antiproliferative effect, MTS cell viability assay, JeKo-1 cells; assay type: cell-based; conditions: Homo sapiens; JeKo-1 mantle cell lymphoma cells; read-out: IC50 (anti-proliferation) JeKO-1 cells
Procedure: as §1, §2, §3

[3] = biological target: BTK (Homo sapiens, UniProt Q06187); assay: Degradation of BTK protein in Namalwa cells (Western blot; DC50, Dmax); conditions: for DC50: cell line not given; for degradation of BTK protein: Namalwa B lymphocyte cells, various concentrations, 24 hours, Western blot
[4] = read-out: DC50 (BTK degradation), concentration giving 50% reduction of BTK expression level
[5] = read-out: Dmax (BTK degradation)

Chain of BTK (Q06187 whole entry): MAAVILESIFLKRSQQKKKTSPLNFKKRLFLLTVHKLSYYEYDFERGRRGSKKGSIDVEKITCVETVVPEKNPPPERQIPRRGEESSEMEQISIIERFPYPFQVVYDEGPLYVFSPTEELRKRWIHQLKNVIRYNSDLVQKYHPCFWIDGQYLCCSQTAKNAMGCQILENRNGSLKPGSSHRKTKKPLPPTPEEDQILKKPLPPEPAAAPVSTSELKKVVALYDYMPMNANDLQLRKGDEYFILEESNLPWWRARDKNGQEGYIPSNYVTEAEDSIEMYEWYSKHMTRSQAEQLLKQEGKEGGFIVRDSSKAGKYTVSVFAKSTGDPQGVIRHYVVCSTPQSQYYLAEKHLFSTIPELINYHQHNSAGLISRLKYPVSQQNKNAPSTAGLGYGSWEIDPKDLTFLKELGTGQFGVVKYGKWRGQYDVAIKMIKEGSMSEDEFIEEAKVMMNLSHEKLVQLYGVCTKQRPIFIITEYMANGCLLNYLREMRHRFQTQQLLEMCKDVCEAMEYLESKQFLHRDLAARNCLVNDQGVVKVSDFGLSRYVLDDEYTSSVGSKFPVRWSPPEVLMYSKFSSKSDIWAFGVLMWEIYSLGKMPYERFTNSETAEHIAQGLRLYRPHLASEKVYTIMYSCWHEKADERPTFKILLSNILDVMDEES

Structure (SMILES) | IC50 [1] | IC50 [2] | DC50 [3, 4] | Dmax [3, 5] | Dmax [3] | DC50 ([3]; BTK degradation) | degradation of BTK protein [3]
Nc1ncnc2c1c(-c1ccc(Oc3ccccc3)cc1)nn2C1CCN(CC2CCN(CC3CN(c4ccc5c(c4)CN(C4CCC(=O)NC4=O)C5=O)C3)CC2)CC1 (stereo not drawn) [Compound 430, 3-(5-(3-((4-((4-(4-amino-3-(4-phenoxyphenyl)-1H-pyrazolo[3,4-d]pyrimidin-1-yl)piperidin-1-yl)methyl)piperidin-1-yl)methyl)azetidin-1-yl)-1-oxoisoindolin-2-yl)piperidine-2,6-dione] | < 1000 nM | < 1000 nM | 10 to 50 nM | > 90% |  |  | 
Nc1ncnc2c1c(-c1ccc(Oc3ccccc3)cc1)nn2C1CCN(C2CCN(C(=O)N3CCC(CCCC4CCN(c5ccc6c(c5)C(=O)N(C5CCC(=O)NC5=O)C6=O)CC4)CC3)CC2)CC1 (stereo not drawn) [Compound 265, 5-(4-(3-(1-(4-(4-amino-3-(4-phenoxyphenyl)-1H-pyrazolo[3,4-d]pyrimidin-1-yl)-[1,4′-bipiperidine]-1′-carbonyl)piperidin-4-yl)propyl)piperidin-1-yl)-2-(2,6-dioxopiperidin-3-yl)isoindoline-1,3-dione] | 1000 to 10000 nM | 1000 to 10000 nM |  |  | > 75% | 10 to 50 nM | 
Nc1ncnc2c1c(-c1ccc(Oc3ccccc3)cc1)nn2[C@@H]1CCCN(C2CCN(C(=O)N3CCC(CCCN4CCC(c5ccc6c(c5)CN(C5CCC(=O)NC5=O)C6=O)CC4)CC3)CC2)C1 (stereo partly drawn) [Compound 198, 3-(5-(1-(3-(1-((R)-3-(4-amino-3-(4-phenoxyphenyl)-1H-pyrazolo[3,4-d]pyrimidin-1-yl)-[1,4′-bipiperidine]-1′-carbonyl)piperidin-4-yl)propyl)piperidin-4-yl)-1-oxoisoindolin-2-yl)piperidine-2,6-dione] | 1000 to 10000 nM | 1000 to 10000 nM |  |  | > 75% | 10 to 50 nM | 
Nc1ncnc2c1c(-c1ccc(Oc3ccccc3)cc1)nn2C1CCN(CC2CCN(CC3CCN(CC4CN(c5ccc6c(c5)C(=O)N(C5CCC(=O)NC5=O)C6=O)C4)CC3)CC2)CC1 (stereo not drawn) [Compound 431, 5-(3-((4-((4-((4-(4-amino-3-(4-phenoxyphenyl)-1H-pyrazolo(3,4-d)pyrimidin-1-yl)piperidin-1-yl)methyl)piperidin-1-yl)methyl)piperidin-1-yl)methyl)azetidin-1-yl)-2-(2,6-dioxopiperidin-3-yl)isoindoline-1,3-dione] | < 1000 nM | < 1000 nM | > 50 nM | > 90% |  |  | dose-dependent degradation
NC(=O)c1c(-c2ccc(Oc3ccccc3)cc2)nn2c1NCC[C@H]2C1CCN(C2CCN(CC3CCN(c4ccc5c(c4)C(=O)N(C4CCC(=O)NC4=O)C5=O)CC3)CC2)CC1 (stereo partly drawn) [Compound 321, (7S)-7-(1′-((1-(2-(2,6-dioxopiperidin-3-yl)-1,3-dioxoisoindolin-5-yl)piperidin-4-yl)methyl)-[1,4′-bipiperidin]-4-yl)-2-(4-phenoxyphenyl)-4,5,6,7-tetrahydropyrazolo[1,5-a]pyrimidine-3-carboxamide] | > 10000 nM | > 10000 nM |  |  | > 75% | 10 to 50 nM | 
Nc1ncnc2c1c(-c1ccc(Oc3ccccc3)cc1)nn2[C@@H]1CCCN(C(=O)N2CC(N3CCN(c4ccc5c(c4)C(=O)N([C@@H]4CCC(=O)NC4=O)C5=O)CC3)C2)C1 [Compound 491, 5-(4-(1-((R)-3-(4-amino-3-(4-phenoxyphenyl)-1H-pyrazolo[3,4-d]pyrimidin-1-yl)piperidine-1-carbonyl)azetidin-3-yl)piperazin-1-yl)-2-((R)-2,6-dioxopiperidin-3-yl)isoindoline-1,3-dione] | < 1000 nM | < 1000 nM | 10 to 50 nM | > 90% |  |  | 
Nc1ncnc2c1c(-c1ccc(Oc3ccccc3)cc1)nn2C1CCN(CC2CCN(CC3CCN(c4ccc5c(c4)C(=O)N(C4CCC(=O)NC4=O)C5=O)C3)C2)CC1 (stereo not drawn) [Compound 447, 5-(3-((3-((4-(4-amino-3-(4-phenoxyphenyl)-1H-pyrazolo(3,4-d)pyrimidin-1-yl)piperidin-1-yl)methyl)pyrrolidin-1-yl)methyl)pyrrolidin-1-yl)-2-(2,6-dioxopiperidin-3-yl)isoindoline-1,3-dione] | 1000 to 10000 nM | 1000 to 10000 nM | 10 to 50 nM | > 90% |  |  | dose-dependent degradation
Nc1ncnc2c1c(-c1ccc(Oc3ccccc3)cc1)nn2C1CCN(C(=O)C2CC(N3CCN(c4ccc5c(c4)CN(C4CCC(=O)NC4=O)C5=O)CC3)C2)CC1 (stereo not drawn) [Compound 508, 3-(5-(4-(3-(4-(4-amino-3-(4-phenoxyphenyl)-1H-pyrazolo[3,4-d]pyrimidin-1-yl)piperidine-1-carbonyl)cyclobutyl)piperazin-1-yl)-1-oxoisoindolin-2-yl)piperidine-2,6-dione] | < 1000 nM | < 1000 nM | < 10 nM | > 90% |  |  | 
Nc1ncnc2c1c(-c1ccc(Oc3ccccc3)cc1)nn2C1CCC(CN2CC(N3CCN(c4ccc5c(c4)C(=O)N(C4CCC(=O)NC4=O)C5=O)CC3)C2)CC1 (stereo not drawn) [Compound 532, 5-(4-(1-((4-(4-amino-3-(4-phenoxyphenyl)-1H-pyrazolo[3,4-d]pyrimidin-1-yl)cyclohexyl)methyl)azetidin-3-yl)piperazin-1-yl)-2-(2,6-dioxopiperidin-3-yl)isoindoline-1,3-dione] | < 1000 nM | < 1000 nM | < 10 nM | > 90% |  |  | 
NC(=O)c1c(-c2ccc(Oc3ccccc3)cc2)nn2c1NCCC2C1CCN(C2CCN(CCN3CCN(c4ccc5c(c4)CN(C4CCC(=O)NC4=O)C5=O)CC3)CC2)CC1 (stereo not drawn) [Compound 308, 7-(1′-(2-(4-(2-(2,6-dioxopiperidin-3-yl)-1-oxoisoindolin-5-yl)piperazin-1-yl)ethyl)-[1,4′-bipiperidin]-4-yl)-2-(4-phenoxyphenyl)-4,5,6,7-tetrahydropyrazolo[1,5-a]pyrimidine-3-carboxamide] | 1000 to 10000 nM | > 10000 nM |  |  | > 75% | 10 to 50 nM | 
Nc1ncnc2c1c(-c1ccc(Oc3ccccc3)cc1)nn2C1CCN(C2CCN(CCCC#Cc3ccc(N4CCC(=O)NC4=O)cc3)CC2)CC1 [Compound 534, 1-(4-(5-(4-(4-amino-3-(4-phenoxyphenyl)-1H-pyrazolo[3,4-d]pyrimidin-1-yl)-[1,4′-bipiperidin]-1′-yl)pent-1-yn-1-yl)phenyl)dihydropyrimidine-2,4(1H,3H)-dione] | > 10000 nM | > 10000 nM | > 50 nM | > 50% |  |  | 
Nc1ncnc2c1c(-c1ccc(Oc3ccccc3)cc1)nn2C1CCN(CCCN2CCC(CN3CCN(c4ccc(N5CCC(=O)NC5=O)cc4)CC3)C2)CC1 (stereo not drawn) [Compound 551, 1-(4-(4-((1-(3-(4-(4-amino-3-(4-phenoxyphenyl)-1H-pyrazolo[3,4-d]pyrimidin-1-yl)piperin-1-yl)propyl)pyrrolidin-3-yl)methyl)piperazin-1-yl)phenyl)dihydropyrimidine-2,4(1H,3H)-dione] | < 1000 nM | < 1000 nM | 10 to 50 nM | > 90% |  |  | 
Nc1ncnc2c1c(-c1ccc(Oc3ccccc3)cc1)nn2C1CCN(CC2CCN(CCC3CCN(c4ccc5c(c4)CN(C4CCC(=O)NC4=O)C5=O)CC3)CC2)CC1 (stereo not drawn) [Compound 202, 3-(5-(4-(2-(4-((4-(4-amino-3-(4-phenoxyphenyl)-1H-pyrazolo[3,4-d]pyrimidin-1-yl)piperidin-1-yl)methyl)piperidin-1-yl)ethyl)piperidin-1-yl)-1-oxoisoindolin-2-yl)piperidine-2,6-dione] | 1000 to 10000 nM | < 1000 nM |  |  | > 90% | 10 to 50 nM | 
Nc1ncnc2c1c(-c1ccc(Oc3ccccc3)cc1)nn2C1CCN(CCN2CCC(N3CCN(c4ccc5c(c4)CN(C4CCC(=O)NC4=O)C5=O)CC3)CC2)CC1 (stereo not drawn) [Compound 458, 3-(5-(4-(1-(2-(4-(4-amino-3-(4-phenoxyphenyl)-1H-pyrazolo[3,4-d]pyrimidin-1-yl)piperidin-1-yl)ethyl)piperidin-4-yl)piperazin-1-yl)-1-oxoisoindolin-2-yl)piperidine-2,6-dione] | 1000 to 10000 nM | 1000 to 10000 nM | > 50 nM | > 50% |  |  | 
Nc1ncnc2c1c(-c1ccc(Oc3ccccc3)cc1)nn2C1CCN(C2CCN(CCN3CCC(c4ccc(N5CCC(=O)NC5=O)cc4)CC3)CC2)CC1 [Compound 569, 1-(4-(1-(2-(4-(4-amino-3-(4-phenoxyphenyl)-1H-pyrazolo[3,4-d]pyrimidin-1-yl)-[1,4′-bipiperidin]-1′-yl)ethyl)piperidin-4-yl)phenyl)dihydropyrimidine-2,4(1H,3H)-dione] | 1000 to 10000 nM | 1000 to 10000 nM | 10 to 50 nM | > 90% |  |  | 
NC(=O)c1c(-c2ccc(Oc3ccccc3)cc2)nn2c1NCCC2C1CCN(C2CCN(CCN3CCC(c4ccc5c(c4)CN(C4CCC(=O)NC4=O)C5=O)CC3)CC2)CC1 (stereo not drawn) [Compound 312, 7-(1′-(2-(4-(2-(2,6-dioxopiperidin-3-yl)-1-oxoisoindolin-5-yl)piperidin-1-yl)ethyl)-[1,4′-bipiperidin]-4-yl)-2-(4-phenoxyphenyl)-4,5,6,7-tetrahydropyrazolo[1,5-a]pyrimidine-3-carboxamide] | > 10000 nM | > 10000 nM |  |  | > 75% | > 50 nM | 
